Test results from patent publication US20250214960A1, “COMPOUNDS HAVING ACTIVITY OF DEGRADING GSPT1 AND APPLICATION THEREOF” (SHANGHAI MEIZER PHARMACEUTICALS CO., LTD., priority 2021, published 2025).
Like-named read-outs stand apart in the source and are kept apart here.

Experiments:
Type in all cases: cell-based
GSPT1 protein = target: T1, GSPT1 protein (Homo sapiens, UniProt P15170+Q96SW2); test: Western blot detection of degradation activity of GSPT1 protein in Jeko-1 cells; settings: JeKo-1, 24 h, read-out: GSPT1 degradation rate (%)
T1 construct: endogenous in cells; host or cells: Jeko-1
T1 sequence (P15170 whole entry): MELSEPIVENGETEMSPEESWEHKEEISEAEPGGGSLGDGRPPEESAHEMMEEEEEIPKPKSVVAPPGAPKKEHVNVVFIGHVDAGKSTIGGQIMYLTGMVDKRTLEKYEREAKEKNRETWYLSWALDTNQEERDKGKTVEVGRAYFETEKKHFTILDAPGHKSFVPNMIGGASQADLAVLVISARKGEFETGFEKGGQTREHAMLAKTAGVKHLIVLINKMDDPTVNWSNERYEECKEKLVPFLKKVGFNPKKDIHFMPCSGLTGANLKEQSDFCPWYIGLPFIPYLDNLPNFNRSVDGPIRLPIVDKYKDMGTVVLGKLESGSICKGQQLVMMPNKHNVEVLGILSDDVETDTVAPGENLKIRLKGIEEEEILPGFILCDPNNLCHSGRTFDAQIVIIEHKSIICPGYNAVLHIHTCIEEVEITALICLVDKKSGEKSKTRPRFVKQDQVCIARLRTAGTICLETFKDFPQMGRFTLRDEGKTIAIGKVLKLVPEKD
T1 sequence (Q96SW2 whole entry): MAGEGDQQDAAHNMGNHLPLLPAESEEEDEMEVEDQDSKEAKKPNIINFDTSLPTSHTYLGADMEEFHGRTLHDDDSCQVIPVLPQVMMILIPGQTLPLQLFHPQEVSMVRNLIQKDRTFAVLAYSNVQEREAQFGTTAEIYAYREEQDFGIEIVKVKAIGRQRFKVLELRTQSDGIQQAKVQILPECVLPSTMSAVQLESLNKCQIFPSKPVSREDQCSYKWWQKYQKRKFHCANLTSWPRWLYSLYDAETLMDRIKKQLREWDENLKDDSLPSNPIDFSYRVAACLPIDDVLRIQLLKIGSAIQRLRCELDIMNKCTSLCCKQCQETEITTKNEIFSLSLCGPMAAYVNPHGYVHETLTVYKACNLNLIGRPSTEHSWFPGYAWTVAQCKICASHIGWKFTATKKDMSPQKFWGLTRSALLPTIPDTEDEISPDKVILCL
T1 sequence (Q16531 whole entry partner): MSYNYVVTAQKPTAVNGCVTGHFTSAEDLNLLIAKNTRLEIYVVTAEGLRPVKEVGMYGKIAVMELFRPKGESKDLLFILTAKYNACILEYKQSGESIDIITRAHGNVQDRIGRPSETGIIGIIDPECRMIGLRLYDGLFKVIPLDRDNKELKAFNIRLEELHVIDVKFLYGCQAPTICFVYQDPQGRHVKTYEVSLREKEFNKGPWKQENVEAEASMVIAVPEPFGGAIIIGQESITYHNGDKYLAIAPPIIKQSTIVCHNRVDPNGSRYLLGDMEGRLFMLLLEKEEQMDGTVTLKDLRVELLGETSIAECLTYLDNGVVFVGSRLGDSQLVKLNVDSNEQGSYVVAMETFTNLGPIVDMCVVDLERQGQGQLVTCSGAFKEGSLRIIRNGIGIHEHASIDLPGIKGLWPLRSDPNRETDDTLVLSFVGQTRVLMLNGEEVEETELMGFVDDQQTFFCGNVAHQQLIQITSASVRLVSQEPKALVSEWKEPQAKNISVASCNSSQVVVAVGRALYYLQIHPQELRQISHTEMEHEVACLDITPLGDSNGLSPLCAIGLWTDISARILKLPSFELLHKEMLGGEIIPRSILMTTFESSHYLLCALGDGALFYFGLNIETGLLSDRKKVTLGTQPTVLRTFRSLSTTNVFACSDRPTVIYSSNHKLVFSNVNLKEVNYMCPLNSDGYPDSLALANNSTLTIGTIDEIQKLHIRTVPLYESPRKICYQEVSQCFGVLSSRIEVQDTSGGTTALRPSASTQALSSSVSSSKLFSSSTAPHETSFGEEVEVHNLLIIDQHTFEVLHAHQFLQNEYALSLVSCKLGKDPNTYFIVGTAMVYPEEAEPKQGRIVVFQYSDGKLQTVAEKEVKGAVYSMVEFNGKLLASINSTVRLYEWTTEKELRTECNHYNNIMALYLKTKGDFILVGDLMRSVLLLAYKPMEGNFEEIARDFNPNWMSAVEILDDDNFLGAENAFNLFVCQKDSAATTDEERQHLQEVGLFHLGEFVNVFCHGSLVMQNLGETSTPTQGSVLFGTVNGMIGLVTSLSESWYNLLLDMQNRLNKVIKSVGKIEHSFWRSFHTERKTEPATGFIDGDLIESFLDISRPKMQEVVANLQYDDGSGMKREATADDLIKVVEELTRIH
Method: Test Example 1: Western Blot Detection of Degradation Activity of GSPT1 Protein by the Compounds
Cell line: Jeko-1 cell line was cultured with an RPMI1640 media containing 20% fetal bovine serum in an incubator at 37° C., 5% CO2, and saturated humidity.
DMSO control group and test compound (concentration shown in the table below) were set up, after processing for 24 hours, the cells were collected, pre-cooled cell lysate was added and left on ice for 10 minutes. The total protein of the cells was extracted, and the protein concentration was measured and quantified using the BCA method. Routine gel preparation, sample loading, electrophoresis were conducted, then the membrane was transferred, and sealed, wherein the primary antibody was diluted with a blocking solution at 1:500-5000. The membrane was immersed in the diluted primary antibody and incubated overnight at 4° C. After rinsing, the secondary antibody was diluted with a sealing solution at 1:10000-20000, the membrane was immersed in the diluted secondary antibody, and incubated at room temperature for 45 minutes. After rinsing, the results were tested on ODYSSEY (Li-COR). GAPDH was used as an internal reference control.
Image J software was used to perform gray level analysis on each band and the degradation rate of GSPT1 protein by the compounds was calculated.

HL-60 cells = test: CTG method, inhibition of HL-60 cell proliferation; settings: Homo sapiens; HL-60, 72 hours; read-out: Cellular proliferation inhibition IC50
Method: (§1) Test Example 2: CTG Method for Detecting the Inhibitory Effect of Compounds of Formula on the Proliferation of HNT 34 or HL-60 Cells
(§2) HNT-34 or HL-60 cells were taken and cultured in RPMI1640 medium containing 20% fetal bovine serum. The cells were inoculated on a 96 well plate, with 1×10^4 cells per well, and incubated at 37° C. in a […] incubator. After adding the test compound, it was incubated for 72 hours. Then an appropriate amount of CTG reagent was added, the luminescence value was measured, and the inhibition rate was calculated.

HNT-34 cells = test: CTG method, inhibition of HNT-34 cell proliferation; settings: HNT-34, 72 hours; read-out: Cellular proliferation inhibition IC50
Method: as §1, §2

inhibition at 0.1 µM (GSPT1 protein; 100 nM, Jeko-1 cells, 24 hours) [%]	inhibition at 10 µM (GSPT1 protein; 10 μM, Jeko-1 cells, 24 hours) [%]	IC50 (HL-60 cells) [nM]	Structure (SMILES)	IC50 (HNT-34 cells) [nM]	also measured
94	100	12.4	CC(C)(C)OC(=O)N[C@H](C(=O)NCc1ccc2c(c1)CN(C1CCC(=O)NC1=O)C2=O)c1ccc(Br)cc1 (stereo partly drawn) [Compound 5-7, Tert butyl ((1S)-1-(4-bromophenyl)-2-((2-(2,6-dioxopyridin-3-yl)-1-oxoisoidoline-5-yl)methyl)amino)-2-oxoethyl) carbamate]	8.7	
84	99	12.5	CN(C(=O)OC(C)(C)C)[C@@H](C(=O)NCc1ccc2c(c1)CN(C1CCC(=O)NC1=O)C2=O)c1ccccc1 (stereo partly drawn) [Compound 5-31, Tert butyl ((1R)-2-((2-(2,6-dioxypiperidin-3-yl)-1-oxoisoindoline-5-yl)methyl)amino)-2-oxo-1-phenylethy 1) (methyl) carbamate]	6.6	
65.2	84.6		CN(C(=O)OC(C)(C)C)C(C(=O)NCc1ccc2c(c1)CN(C1CCC(=O)NC1=O)C2=O)c1ccc(Cl)c(Cl)c1 (centres unmarked) [Compound 5-76, Tert butyl (1-(3,4-dichlorophenyl)-2-((2-(2,6-dioxopyridin-3-yl)-1-oxoisoidoline-5-yl)methyl)amino)-2-oxoethyl (methyl) carbamate]		
29.8	74.8		CC(C)(C)OC(=O)O[C@H](C(=O)NCc1ccc2c(c1)CN(C1CCC(=O)NC1=O)C2=O)c1ccccc1 (stereo partly drawn) [Compound 5-82, Tert butyl ((1S)-2-((2-(2,6-dioxypiperidin-3-yl)-1-oxoisoindoline-5-yl)methyl)amino)-2-oxo-1-phenylethy 1) carbonate]		
96.2	95.5		CC(C)(C)OC(=O)N[C@H](Cc1ccccc1Cl)C(=O)NCc1ccc2c(c1)CN(C1CCC(=O)NC1=O)C2=O (stereo partly drawn) [Compound 5-83, Tert butyl ((2R)-3-(2-chlorophenyl)-1-((2-(2,6-dioxopyridin-3-yl)-1-oxoisoidoline-5-yl)methyl)amino)-1-oxopropan-2-yl) carbamate]		
52.7	82.7		CC(C)C[C@H](NC(=O)OC(C)(C)C)C(=O)NCc1ccc2c(c1)CN(C1CCC(=O)NC1=O)C2=O (stereo partly drawn) [Compound 5-84, Tert butyl ((2S)-1-((2-(2,6-dioxypiperidin-3-yl)-1-oxoisoidoline-5-yl)methyl)amino)-4-methyl-1-oxapent-2-yl) carbamate]		
16	70		O=C1CCC(N2Cc3cc(CNC(=O)[C@@H](CNC(=O)C4CCCC4)c4ccccc4)ccc3C2=O)C(=O)N1 (some centres unmarked) [Compound 5-95]		
98	99		CC(C)(C)OC(=O)NC(CC(=O)NCc1ccc2c(c1)CN(C1CCC(=O)NC1=O)C2=O)C1CCCC1 (centres unmarked) [Compound 5-99, Tert butyl (1-cyclopentyl-3-((2-(2,6-dioxypiperidin-3-yl)-1-oxoisoindoline-5-yl)methyl)amino)-3-oxopropyl) carbamate]		

Second part, the compound before the results:

Structure (SMILES)	inhibition at 0.1 µM (GSPT1 protein; 100 nM, Jeko-1 cells, 24 hours) [%]	inhibition at 10 µM (GSPT1 protein; 10 μM, Jeko-1 cells, 24 hours) [%]	IC50 (HL-60 cells) [nM]	IC50 (HNT-34 cells) [nM]	also measured
CCN(C(=O)OC(C)(C)C)[C@H](C(=O)NCc1ccc2c(c1)CN(C1CCC(=O)NC1=O)C2=O)c1ccccc1 (stereo partly drawn) [Compound 1-89, Tert butyl ((1S)-2-((2-(2,6-dioxypiperidin-3-yl)-1-oxoisoindoline-5-yl)methyl)amino)-2-oxo-1-phenylethy 1) (ethyl) carbamate]	97.8	98.7	5	3.8	
CC(C)C[C@@H](NC(=O)OC(C)(C)C)C(=O)NCc1ccc2c(c1)CN(C1CCC(=O)NC1=O)C2=O (stereo partly drawn) [Compound 4-123, Tert butyl ((2R)-1-((2-(2,6-dioxypiperidin-3-yl)-1-oxoidoline-5-yl)methyl)amino)-4-methyl-1-oxolan-2-yl) carbamate]	79.9	92.7	28.9	26.9	
CC(C)(C)OC(=O)N[C@H](C(=O)NCc1ccc2c(c1)CN(C1CCC(=O)NC1=O)C2=O)c1ccc2ccccc2c1 (stereo partly drawn) [Compound 4-133, tert butyl ((1S)-2-((2-(2,6-dioxypiperidin-3-yl)-1-oxoisoidoline-5-yl)methyl)amino)-1-(naphthalene-2-yl)-2-oxoethyl) carbamate]	79	86	14.3	3.2	
CN(C(=O)OC(C)(C)C)[C@H](C(=O)NCc1ccc2c(c1)CN(C1CCC(=O)NC1=O)C2=O)c1ccccc1 (stereo partly drawn) [Compound 4-135, Tert butyl ((1S)-2-((2-(2,6-dioxypiperidin-3-yl)-1-oxoisoindoline-5-yl)methyl)amino)-2-oxo-1-phenylethy 1) (methyl) carbamate]	80	93	14.3	6.2	
CC(C)(C)OC(=O)N[C@H](C(=O)NCc1ccc2c(c1)CN(C1CCC(=O)NC1=O)C2=O)c1ccc(F)cc1 (stereo partly drawn) [Compound 4-136, Tert butyl ((1S)-2-((2-(2,6-dioxypiperidin-3-yl)-1-oxoisoidoline-5-yl)methyl)amino)-1-(4-fluorophenyl)-2-oxoethyl) carbamate]	82	97		3.6	
Cc1ccc([C@H](NC(=O)OC(C)(C)C)C(=O)NCc2ccc3c(c2)CN(C2CCC(=O)NC2=O)C3=O)cc1 (stereo partly drawn) [Compound 4-166, Tert butyl ((1S)-2-((2-(2,6-dioxypiperidin-3-yl)-1-oxoisoindoline-5-yl)methyl)amino)-2-oxo-1-(p-tolyl) ethyl) carbamate]	82	93	12.8	11.3	
CC(C)(C)OC(=O)NC(C(=O)NCc1ccc2c(c1)CN(C1CCC(=O)NC1=O)C2=O)c1ccccc1Cl (centres unmarked) [Compound 4-200, Tert butyl (1-(2-chlorophenyl)-2-((2-(2,6-dioxypiperidin-3-yl)-1-oxoisoindoline-5-yl)methyl)amino)-2-oxoethyl) carbamate]	99	100	8.3	3.2	
O=C1CCC(N2Cc3cc(CNC(=O)C(CNC(=O)Oc4ccccc4)c4ccccc4)ccc3C2=O)C(=O)N1 (centres unmarked) [Compound 5-10, Phenyl (3-((2-(2,6-dioxypiperidin-3-yl)-1-oxoisoindolin-5-yl)methyl)amino)-3-oxo-2-phenylpropyl) carbamate]			37.7	36.9	inhibition at 0.1 µM (GSPT1 protein): 73%; inhibition at 10 µM (GSPT1 protein): 90%
CC(C)(C)OC(=O)N[C@H](C(=O)NCc1ccc2c(c1)CN([C@H]1CCC(=O)NC1=O)C2=O)c1ccccc1Cl [Compound 5-17b, Tert butyl ((1S)-1-(2-chlorophenyl)-2-((2-((S)-2,6-dioxopyridin-3-yl)-1-oxoisoidoline-5-yl)methyl)amino)-2-oxoethyl) carbamate]			4.6		inhibition at 0.01 µM (GSPT1 protein; 10 nM, Jeko-1 cells, 24 hours): 57%; inhibition at 1 µM (GSPT1 protein; 1 μM, Jeko-1 cells, 24 hours): 100%
O=C1CCC(N2Cc3cc(CNC(=O)[C@H](CC4CCCCC4)NC(=O)OC4CCCC4)ccc3C2=O)C(=O)N1 (stereo partly drawn) [Compound 5-93, Cyclopentyl ((2S)-3-cyclohexyl-1-((2-(2,6-dioxopyridin-3-yl)-1-oxoisoidoline-5-yl)methyl)amino)-1-oxopropan-2-yl) carbamate]					inhibition at 0.1 µM (GSPT1 protein): 99%; inhibition at 10 µM (GSPT1 protein): 100%
O=C1CCC(N2Cc3cc(CNC(=O)[C@@H](NC(=O)OC4CCOC4)c4ccccc4)ccc3C2=O)C(=O)N1 (stereo partly drawn) [Compound 6-01, ((1S)-2-(((2-(2,6-dioxopyridin-3-yl)-1-oxoisoindoline-5-yl)methyl)amino)-2-oxo-1-phenylethyl) carbamate-β-Oxocyclopentanol Ester]					inhibition at 0.01 µM (GSPT1 protein): 10%; inhibition at 1 µM (GSPT1 protein): 68%
O=C1CCC(N2Cc3cc(CNC(=O)[C@@H](NC(=O)OC4CCCCC4)c4ccccc4)ccc3C2=O)C(=O)N1 (stereo partly drawn) [Compound 6-02, ((1S)-2-(((2-(2,6-dioxypiperidin-3-yl)-1-oxoisoindoline-5-yl)methyl)amino)-2-oxo-1-phenylethyl) carbamate Cyclohexanol Ester]					inhibition at 0.01 µM (GSPT1 protein): 95%; inhibition at 1 µM (GSPT1 protein): 96%
O=C1CCC(N2Cc3cc(CNC(=O)[C@@H](NC(=O)OC4CCOCC4)c4ccccc4)ccc3C2=O)C(=O)N1 (stereo partly drawn) [Compound 6-03, ((1S)-2-(((2-(2,6-dioxopyridin-3-yl)-1-oxoisoindoline-5-yl)methyl)amino)-2-oxo-1-phenylethyl) carbamate-γ-Oxyhexanol Ester]					inhibition at 0.01 µM (GSPT1 protein): 28%; inhibition at 1 µM (GSPT1 protein): 90%
